Measurements published in US20230085307A1, “PYRIDAZINONE COMPOUND AND HERBICIDE” (NISSAN CHEMICAL CORPORATION, priority 2019, published 2023).

Legend:
barnyard grass [1] = assay: Test Example 3: herbicidal effect by foliage application, Wagner pot (Table 18, symbol H); type: in vivo, barnyard grass (Echinochloa crus-galli); conditions: 320 g/ha
Procedure, shortened: (§1)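 Plants were sown in alluvial soil held under 0.1–0.5 cm standing water and grown 14 days in a greenhouse at 25–30 °C. An emulsifiable formulation, water-diluted to the set dose, was then sprayed onto the foliage, and effects were scored three weeks later using previously defined criteria.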

Chinese sprangletop = assay: Test Example 3: herbicidal effect by foliage application, Wagner pot (Table 18, symbol D); type: in vivo, chinese sprangletop (Leptochloa chinensis); conditions: 320 g/ha
Procedure, shortened: as §1

rice flat sedge = assay: Test Example 3: herbicidal effect by foliage application, Wagner pot (Table 18, symbol E); type: in vivo, rice flat sedge (Cyperus iria); conditions: 320 g/ha
Procedure, shortened: as §1

southern crabgrass [2] = assay: Test Example 4: herbicidal effect by soil treatment (Table 19, symbol F); type: in vivo, southern crabgrass (Digitaria ciliaris); conditions: amount of applied herbicide 320 g/ha
Procedure, shortened: (§2)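 Emulsion of test compound, water-diluted to predetermined amount, sprayed on soil after sowing (seed depth ~1.5 cm, sterilized diluvial soil). Greenhouse, 25–30° C. Effect graded at three weeks post-spray.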

green foxtail [3] = assay: Test Example 4: herbicidal effect by soil treatment (Table 19, symbol G); type: in vivo, green foxtail (Setaria viridis); conditions: amount of applied herbicide 320 g/ha
Procedure, shortened: as §2

barnyard grass [4] = assay: Test Example 4: herbicidal effect by soil treatment (Table 19, symbol H); type: in vivo, barnyard grass (Echinochloa crus-galli); conditions: amount of applied herbicide 320 g/ha
Procedure, shortened: as §2

wild oat [5] = assay: Test Example 4: herbicidal effect by soil treatment (Table 19, symbol I); type: in vivo, wild oat (Avena fatua); conditions: amount of applied herbicide 320 g/ha
Procedure, shortened: as §2

blackgrass [6] = assay: Test Example 4: herbicidal effect by soil treatment (Table 19, symbol J); type: in vivo, blackgrass (Alopecurus myosuroides); conditions: amount of applied herbicide 320 g/ha
Procedure, shortened: as §2

Italian ryegrass [7] = assay: Test Example 4: herbicidal effect by soil treatment (Table 19, symbol K); type: in vivo, Italian ryegrass (Lolium multiflorum); conditions: amount of applied herbicide 320 g/ha
Procedure, shortened: as §2

windgrass [8] = assay: Test Example 4: herbicidal effect by soil treatment (Table 19, symbol L); type: in vivo, windgrass (Apera spica-venti); conditions: amount of applied herbicide 320 g/ha
Procedure, shortened: as §2

velvetleaf [9] = assay: Test Example 4: herbicidal effect by soil treatment (Table 19, symbol M); type: in vivo, velvetleaf (Abutilon theophrasti); conditions: amount of applied herbicide 320 g/ha
Procedure, shortened: as §2

redroot pigweed [10] = assay: Test Example 4: herbicidal effect by soil treatment (Table 19, symbol N); type: in vivo, redroot pigweed (Amaranthus retroflexus); conditions: amount of applied herbicide 320 g/ha
Procedure, shortened: as §2

lambsquarters [11] = assay: Test Example 4: herbicidal effect by soil treatment (Table 19, symbol O); type: in vivo, lambsquarters (Chenopodium album); conditions: amount of applied herbicide 320 g/ha
Procedure, shortened: as §2

chickweed [12] = assay: Test Example 4: herbicidal effect by soil treatment (Table 19, symbol P); type: in vivo, common chickweed (Stellaria media); conditions: amount of applied herbicide 320 g/ha
Procedure, shortened: as §2

persian speedwell [13] = assay: Test Example 4: herbicidal effect by soil treatment (Table 19, symbol R); type: in vivo, Persian speedwell (Veronica persica); conditions: amount of applied herbicide 320 g/ha
Procedure, shortened: as §2

southern crabgrass [14] = assay: Test Example 5: herbicidal effect by foliage application, plastic box (Table 20, symbol F); type: in vivo, southern crabgrass (Digitaria ciliaris); conditions: 320 g/ha, foliage application after 14-day growth, evaluated three weeks after application
Procedure, shortened: (§3)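 Post-emergence foliar test in sterilized diluvial soil. Compound applied as water-diluted emulsion at a predetermined rate to 14-day-old plants; evaluation at three weeks.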

green foxtail [15] = assay: Test Example 5: herbicidal effect by foliage application, plastic box (Table 20, symbol G); type: in vivo, green foxtail (Setaria viridis); conditions: 320 g/ha, foliage application after 14-day growth, evaluated three weeks after application
Procedure, shortened: as §3

barnyard grass [16] = assay: Test Example 5: herbicidal effect by foliage application, plastic box (Table 20, symbol H); type: in vivo, barnyard grass (Echinochloa crus-galli); conditions: 320 g/ha, foliage application after 14-day growth, evaluated three weeks after application
Procedure, shortened: as §3

wild oat [17] = assay: Test Example 5: herbicidal effect by foliage application, plastic box (Table 20, symbol I); type: in vivo, wild oat (Avena fatua); conditions: 320 g/ha, foliage application after 14-day growth, evaluated three weeks after application
Procedure, shortened: as §3

blackgrass [18] = assay: Test Example 5: herbicidal effect by foliage application, plastic box (Table 20, symbol J); type: in vivo, blackgrass (Alopecurus myosuroides); conditions: 320 g/ha, foliage application after 14-day growth, evaluated three weeks after application
Procedure, shortened: as §3

Italian ryegrass [19] = assay: Test Example 5: herbicidal effect by foliage application, plastic box (Table 20, symbol K); type: in vivo, Italian ryegrass (Lolium multiflorum); conditions: 320 g/ha, foliage application after 14-day growth, evaluated three weeks after application
Procedure, shortened: as §3

windgrass [20] = assay: Test Example 5: herbicidal effect by foliage application, plastic box (Table 20, symbol L); type: in vivo, windgrass (Apera spica-venti); conditions: 320 g/ha, foliage application after 14-day growth, evaluated three weeks after application
Procedure, shortened: as §3

velvetleaf [21] = assay: Test Example 5: herbicidal effect by foliage application, plastic box (Table 20, symbol M); type: in vivo, velvetleaf (Abutilon theophrasti); conditions: 320 g/ha, foliage application after 14-day growth, evaluated three weeks after application
Procedure, shortened: as §3

redroot pigweed [22] = assay: Test Example 5: herbicidal effect by foliage application, plastic box (Table 20, symbol N); type: in vivo, redroot pigweed (Amaranthus retroflexus); conditions: 320 g/ha, foliage application after 14-day growth, evaluated three weeks after application
Procedure, shortened: as §3

lambsquarters [23] = assay: Test Example 5: herbicidal effect by foliage application, plastic box (Table 20, symbol O); type: in vivo, lambsquarters (Chenopodium album); conditions: 320 g/ha, foliage application after 14-day growth, evaluated three weeks after application
Procedure, shortened: as §3

chickweed [24] = assay: Test Example 5: herbicidal effect by foliage application, plastic box (Table 20, symbol P); type: in vivo, common chickweed (Stellaria media); conditions: 320 g/ha, foliage application after 14-day growth, evaluated three weeks after application
Procedure, shortened: as §3

persian speedwell [25] = assay: Test Example 5: herbicidal effect by foliage application, plastic box (Table 20, symbol R); type: in vivo, Persian speedwell (Veronica persica); conditions: 320 g/ha, foliage application after 14-day growth, evaluated three weeks after application
Procedure, shortened: as §3

| SMILES | herbicidal effect on barnyard grass (H) (barnyard grass [1]) | herbicidal effect on Chinese sprangletop (D) (Chinese sprangletop) | herbicidal effect on rice flat sedge (E) (rice flat sedge) | Herbicidal effect by soil treatment, F: southern crabgrass (southern crabgrass [2]) | Herbicidal effect by soil treatment, G: green foxtail (green foxtail [3]) | Herbicidal effect by soil treatment, H: barnyard grass (barnyard grass [4]) | Herbicidal effect by soil treatment, I: wild oat (wild oat [5]) | Herbicidal effect by soil treatment, J: blackgrass (blackgrass [6]) | Herbicidal effect by soil treatment, K: Italian ryegrass (Italian ryegrass [7]) | Herbicidal effect by soil treatment, L: windgrass (windgrass [8]) | Herbicidal effect by soil treatment, M: velvetleaf (velvetleaf [9]) | Herbicidal effect by soil treatment, N: redroot pigweed (redroot pigweed [10]) | Herbicidal effect by soil treatment, O: lambsquarters (lambsquarters [11]) | Herbicidal effect by soil treatment, P: chickweed (chickweed [12]) | Herbicidal effect by soil treatment, R: persian speedwell (persian speedwell [13]) | herbicidal effect on F: southern crabgrass (evaluation grade 0-5) (southern crabgrass [14]) | herbicidal effect on G: green foxtail (evaluation grade 0-5) (green foxtail [15]) | herbicidal effect on H: barnyard grass (evaluation grade 0-5) (barnyard grass [16]) | herbicidal effect on I: wild oat (evaluation grade 0-5) (wild oat [17]) | herbicidal effect on J: blackgrass (evaluation grade 0-5) (blackgrass [18]) | other results |
| --- | --- | --- | --- | --- | --- | --- | --- | --- | --- | --- | --- | --- | --- | --- | --- | --- | --- | --- | --- | --- | --- |
| Cc1nn(C)c(=O)c(-c2c(-c3ccccc3)sc3c(Cl)cccc23)c1O [4-056] | 4 (Herbicidal rate of 70% or more and less than 90%) | 4 (Herbicidal rate of 70% or more and less than 90%) | 4 (Herbicidal rate of 70% or more and less than 90%) | 0 (Herbicidal rate of 5% or less (almost no effect)) | 0 (Herbicidal rate of 5% or less (almost no effect)) | 0 (Herbicidal rate of 5% or less (almost no effect)) | 0 (Herbicidal rate of 5% or less (almost no effect)) | 0 (Herbicidal rate of 5% or less (almost no effect)) | 0 (Herbicidal rate of 5% or less (almost no effect)) | 3 (Herbicidal rate of 40% or more and less than 70%) | 0 (Herbicidal rate of 5% or less (almost no effect)) | 0 (Herbicidal rate of 5% or less (almost no effect)) | 0 (Herbicidal rate of 5% or less (almost no effect)) | 3 (Herbicidal rate of 40% or more and less than 70%) | 0 (Herbicidal rate of 5% or less (almost no effect)) | 2 (Herbicidal rate of 20% or more and less than 40%) | 1 (Herbicidal rate of 5% or more and less than 20%) | 3 (Herbicidal rate of 40% or more and less than 70%) | 4 (Herbicidal rate of 70% or more and less than 90%) | 4 (Herbicidal rate of 70% or more and less than 90%) | herbicidal effect on K: Italian ryegrass (evaluation grade 0-5) (Italian ryegrass [19]): 4 (Herbicidal rate of 70% or more and less than 90%); herbicidal effect on L: windgrass (evaluation grade 0-5) (windgrass [20]): 5 (Herbicidal rate of 90% or more (almost completely withered)); herbicidal effect on M: velvetleaf (evaluation grade 0-5) (velvetleaf [21]): 5 (Herbicidal rate of 90% or more (almost completely withered)); herbicidal effect on N: redroot pigweed (evaluation grade 0-5) (redroot pigweed [22]): 5 (Herbicidal rate of 90% or more (almost completely withered)); herbicidal effect on O: lambsquarters (evaluation grade 0-5) (lambsquarters [23]): 3 (Herbicidal rate of 40% or more and less than 70%); herbicidal effect on P: chickweed (evaluation grade 0-5) (chickweed [24]): 5 (Herbicidal rate of 90% or more (almost completely withered)); herbicidal effect on R: persian speedwell (evaluation grade 0-5) (persian speedwell [25]): 5 (Herbicidal rate of 90% or more (almost completely withered)) |
| CCCCOc1cccc(-c2sc3c(Cl)cccc3c2-c2c(O)c(C)nn(C)c2=O)c1 [4-068] | 4 (Herbicidal rate of 70% or more and less than 90%) | 3 (Herbicidal rate of 40% or more and less than 70%) | 3 (Herbicidal rate of 40% or more and less than 70%) | 0 (Herbicidal rate of 5% or less (almost no effect)) | 0 (Herbicidal rate of 5% or less (almost no effect)) | 0 (Herbicidal rate of 5% or less (almost no effect)) | 0 (Herbicidal rate of 5% or less (almost no effect)) | 0 (Herbicidal rate of 5% or less (almost no effect)) | 0 (Herbicidal rate of 5% or less (almost no effect)) | 0 (Herbicidal rate of 5% or less (almost no effect)) | 0 (Herbicidal rate of 5% or less (almost no effect)) | 3 (Herbicidal rate of 40% or more and less than 70%) | 0 (Herbicidal rate of 5% or less (almost no effect)) | 0 (Herbicidal rate of 5% or less (almost no effect)) | 0 (Herbicidal rate of 5% or less (almost no effect)) | 0 (Herbicidal rate of 5% or less (almost no effect)) | 0 (Herbicidal rate of 5% or less (almost no effect)) | 0 (Herbicidal rate of 5% or less (almost no effect)) | 0 (Herbicidal rate of 5% or less (almost no effect)) | 0 (Herbicidal rate of 5% or less (almost no effect)) | herbicidal effect on K: Italian ryegrass (evaluation grade 0-5) (Italian ryegrass [19]): 0 (Herbicidal rate of 5% or less (almost no effect)); herbicidal effect on L: windgrass (evaluation grade 0-5) (windgrass [20]): 0 (Herbicidal rate of 5% or less (almost no effect)); herbicidal effect on M: velvetleaf (evaluation grade 0-5) (velvetleaf [21]): 0 (Herbicidal rate of 5% or less (almost no effect)); herbicidal effect on N: redroot pigweed (evaluation grade 0-5) (redroot pigweed [22]): 2 (Herbicidal rate of 20% or more and less than 40%); herbicidal effect on O: lambsquarters (evaluation grade 0-5) (lambsquarters [23]): 0 (Herbicidal rate of 5% or less (almost no effect)); herbicidal effect on P: chickweed (evaluation grade 0-5) (chickweed [24]): 5 (Herbicidal rate of 90% or more (almost completely withered)); herbicidal effect on R: persian speedwell (evaluation grade 0-5) (persian speedwell [25]): 5 (Herbicidal rate of 90% or more (almost completely withered)) |
